The values below are quoted from earlier work in patent US20240108573A1, “NANOLIPID CARRIER BASED FORMULATION FOR BRAIN DELIVERY THROUGH INTRANASAL ROUTE AND ITS PREPARATION PROCESS” (AMRITA SCHOOL OF PHARMACY, AMRITA VISHWA VIDYAPEETHAM, priority 2022, published 2024).

SMILES strings stand for the structures.

As for `O=C1NC(=O)C(c2ccccc2)(c2ccccc2)N1` [phenytoin sodium], the biological half-life was 15-22 hrs.
